According to PubChem BioAssay AID2005 (Sanford-Burnham Center for Chemical Genomics, 2009):
Calls of active or inactive are those of the source.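 The calls were made as follows: active = plate Z score at or below -3, or inhibition of at least 30% at 20 µM; inactive = the rest.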

What was measured:
[1] = compounds lowering EGFP fluorescence in F442A cells, dose response, counter-screen for p/CIP destabilizer project (AID 2005); details: F442A EGFP cells, EGFP fluorescence, 16 h, stronger effect = higher value;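 also: cells express EGFP alone from a CMV promoter as a counter screen for p/CIP-EGFP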
[2] = test system: F442A EGFP cells, EGFP fluorescence, 16 h; assay: as above

| Compound | inhibition ([1]; EGFP decrease, at 10 µM) [%] | IC50 [2] | inhibition ([1]; at 20 µM) |
| --- | --- | --- | --- |
| CC1CCN(S(=O)(=O)c2ccc3c(c2)C(=NO)c2cc(S(=O)(=O)N4CCC(C)CC4)ccc2-3)CC1 | 68.9 | 7.46 µM | – |
| COc1ccc(CS(=O)/C(Cl)=C(/Cl)C(=O)Nc2ccc(OC)nc2)cc1 (stereo unspecified) | -232 | 48 µM (inactive) | – |
| Cc1ccc(NC2=C/C(=N\S(=O)(=O)c3cccs3)c3ccccc3C2=O)c(C)c1 | 60 | 16 µM | – |
| Nc1ccc2c(c1)C(=O)C(=O)c1ccccc1-2 | 3.5 | 30.8 µM | – |
| O=C1C(Nc2ccc(O)cc2)=C/C(=N/S(=O)(=O)c2cccs2)c2ccccc21 | 66 | 5.18 µM | – |
| COc1ccc(NC(=O)/C(Cl)=C(/Cl)S(=O)Cc2ccc(Cl)cc2)cn1 (stereo unspecified) | -168 | 49.9 µM (inactive) | – |
| CC(C)(C)c1cc[n+](C2=C([O-])c3ccccc3C(=O)/C2=N\S(=O)(=O)c2cccs2)cc1 | -4.5 | 37.9 µM | – |
| CCOC(=O)c1c(C)[nH]c2c1-c1ccccc1C(=O)C2=O | 23.3 | 8.64 µM | – |
| Cc1oc2c(c1C(=O)NCc1cccnc1)C(=O)c1ccccc1C2=O | 72 | 5.99 µM | – |
| Cc1ccccc1NC1=C/C(=N\S(=O)(=O)c2cccs2)c2ccccc2C1=O | 66.7 | 13 µM | – |
| C[C@@H](CN1C2=NC[C@H](Cc3ccc(O)cc3)N2C[C@H]1Cc1ccc(O)cc1)NC(=O)CCC1CCCCC1 | 19.4 | – | 28.8% (inactive) |
| O=C(N/N=C/c1cccc(O)c1)c1ccc(COc2cccc3cccnc23)cc1 | 2.4 | – | 7.8% (inactive) |
| O=S(=O)(NCC1CCCN(Cc2ccccc2)C1)c1cccc2cccnc12 (stereo unspecified) | 21.3 | – | 19.6% (inactive) |
| CCN(CC(=O)N1CCOCC1)S(=O)(=O)c1ccccc1 | 7.2 | – | -27.6% (inactive) |
| O=C1NC(Cc2c[nH]c3ccccc23)C(=O)N1CCOc1ccc(F)cc1 (stereo unspecified) | 11.9 | – | 9.1% (inactive) |
| COc1ccc(/C=C/C2=NN(Cc3ccccc3)C(=O)CC2)cc1 | 28.1 | – | 18.7% (inactive) |
| Cn1nc(-c2ccccn2)nc2c(=O)n(C)c(=O)nc1-2 | 61.5 | – | 45.6% |
| C[C@@H](C(=O)N1CCN(C(=O)OC(C)(C)C)CC1)n1cc(-c2cn([C@@H](C)C(=O)N3CCN(C(=O)OC(C)(C)C)CC3)nn2)nn1 | 38.2 | – | 25.3% (inactive) |
| C/C(=N\NC(=O)c1cccs1)c1c(O)cc(C)oc1=O | 28.7 | – | 0.8% (inactive) |
| COc1cc2c(cc1NC(=O)/C=C/c1ccccc1)oc1ccccc12 | 12.4 | – | -0.8% (inactive) |
| CCOC(=O)c1oc2ccccc2c1N | 12.3 | – | 19.4% (inactive) |
| Cc1ccc(S(=O)(=O)NCC(C)NS(=O)(=O)c2ccc(C)cc2)cc1 (stereo unspecified) | 34.7 | – | -7.7% (inactive) |
| COc1ccc2c(C)cc3nncn3c2c1 | -2.7 | – | 14.7% (inactive) |
| CCOc1ccccc1N1CCN(C(=O)c2cc(-c3cc(OC)ccc3OC)nc3ccccc23)CC1 | 20.9 | – | 24.9% (inactive) |
| Cc1ccc(/C=C/C(=O)c2ccc(N3CCOCC3)cc2)s1 | 8.3 | – | -1.4% (inactive) |
| Fc1ccc(CNCCc2ccccc2)cc1 | 21.5 | – | -9.1% (inactive) |

| Compound | inhibition ([1]; EGFP decrease, at 10 µM) [%] | IC50 [2] | inhibition ([1]; at 20 µM) |
| --- | --- | --- | --- |
| COc1ccc(Cl)c(NC(=O)Nc2c(C)n(-c3ccccc3)c(=O)n2C)c1 | 8.4 | – | 26.9% (inactive) |
| COC(=O)[C@@H](Cc1c[nH]c2ccccc12)NC(=O)C1CCCN(S(=O)(=O)c2ccc(C)cc2)C1 (stereo partly specified) | -7.3 | – | 19.7% (inactive) |
| Cc1cc(C)n(C(=O)CNc2ccccc2Cl)n1 | 9 | – | 23.3% (inactive) |
| COc1ccccc1CNC(=O)CCCC(=O)n1ncc2cc(C)ccc21 | -25.7 | – | 20.2% (inactive) |
| CS(=O)(=O)c1ccc(S(=O)CC(=O)OCc2ccccc2)c([N+](=O)[O-])c1 (stereo unspecified) | 16 | – | -0.6% (inactive) |
| CCC1=C(OC(=O)N(CC)CC)N2C(=O)OC(=NCC3CC3)[C@]2(Cc2ccccc2)[C@H]2C1=CC[C@H]1C(=O)N(CC(=O)OC)C(=O)[C@H]12 | 0.3 | – | 13.8% (inactive) |
| CN(c1ccc(C(=O)Nc2ccccn2)cc1)S(=O)(=O)c1ccccc1 | 11.8 | – | 9% (inactive) |
| Cc1ccc(-c2nnc(CSc3nc(C)nc4sc(C)c(C)c34)o2)cc1 | 12.1 | – | 14.3% (inactive) |
| CC(CN1CCOCC1)OC(=O)C(C)(c1ccccc1)c1ccccc1 (stereo unspecified) | -14.9 | – | -4.6% (inactive) |
| Cc1c(N=NC2=C(O)CCCC2=O)c(=O)n(-c2ccccc2)n1C | 6.5 | – | 21.3% (inactive) |
| c1ccc(C2CC3CC4(CCCC4)N2O3)cc1 (stereo unspecified) | 17.2 | – | -10.7% (inactive) |
| CC(C)=CC(=O)Nc1ccccc1Br | 26.1 | – | 12.9% (inactive) |
| CCCC(C)C1(CC)C(=O)NC(=Nc2ccc(F)cc2)NC1=O (stereo unspecified) | 37.5 | – | 27.3% (inactive) |
| COc1cccc2[nH]c(C(=O)NCCc3ccccc3)cc12 | 4.4 | – | 17.4% (inactive) |
| CCOC(=O)CCc1c(C)c2ccc(OCC(=O)N(CC)CC)c(C)c2oc1=O | 19.9 | – | 8.8% (inactive) |
| Cc1ccccc1CN1CCC(CNC(=O)Nc2ccc(F)cc2F)CC1 | 25.1 | – | 20.2% (inactive) |
| CCOC(=O)CSc1nc2ccccc2c(=O)n1CCCCCC(=O)NCc1ccco1 | 8.4 | – | 5.8% (inactive) |
| Cc1cc(=O)[nH]c(SCC(=O)O)c1C#N | 24 | – | 10.9% (inactive) |
| c1ccc2c3nnc4n(c-3nc2c1)CCCS4 | 17.5 | – | 23.7% (inactive) |
| CC(Oc1ccc(Cl)cc1)C(=O)NCC1CCCO1 (stereo unspecified) | 20.8 | – | -7.4% (inactive) |
| CC(=O)c1ccc(OCc2cc(C(=O)NC3CCCCC3)no2)cc1 | 15.2 | – | 9.5% (inactive) |
| Cn1c(SCc2ccc(C#N)cc2)nnc1-c1ccccc1 | 18.5 | – | -12.9% (inactive) |
| CCc1cc2c(=O)c(-c3cscn3)coc2cc1O | -1.7 | – | -28% (inactive) |
| Cc1ccc(S(=O)(=O)CCSc2nc(C)cc(C(F)(F)F)c2C#N)cc1 | -55.8 | – | -128% (inactive) |
| Cc1nnc(NC(=O)CSc2nccn2Cc2ccc(F)cc2)s1 | 22.4 | – | 16.3% (inactive) |
| CCC(C(=O)NC1CCCCCC1)n1nc(C)n2c(cc3occc32)c1=O (stereo unspecified) | 2.6 | – | 5.5% (inactive) |

| Compound | inhibition ([1]; EGFP decrease, at 10 µM) [%] | IC50 [2] | inhibition ([1]; at 20 µM) |
| --- | --- | --- | --- |
| N#Cc1cn(CC(=O)NCCc2c[nH]c3ccccc23)c2ccccc12 | 10.9 | – | -0.3% (inactive) |
| COCC(=O)N1CCCN(c2nc3c(C)cccc3cc2C#N)CC1 | 7.6 | – | -0.8% (inactive) |
| CCN1CCN(c2cc(C)c3cc(NC(=S)N4CC(C)CC(C)C4)ccc3n2)CC1 (stereo unspecified) | 28.8 | – | 12.7% (inactive) |
| S=c1[nH]nc(COc2ccccc2)n1/N=C/c1ccc(Cl)cc1Cl | 13.4 | – | 9.7% (inactive) |
| CCCCN(CC)C(=O)c1cc2cc3ccc(OC)cc3nc2o1 | 23.8 | – | 25.6% (inactive) |
| c1ccc(-c2cc(-c3nnco3)c3ccccc3n2)nc1 | 13.9 | – | -6.2% (inactive) |
| Cc1ccc(NC2CCCN(C(=O)c3ccccc3-c3ncc[nH]3)C2)cc1C (stereo unspecified) | -12.3 | – | 21.4% (inactive) |
| CCOc1ccc(-c2c[n+]3c(n2-c2ccccc2)CCCCC3)cc1 | 32.2 | – | 51.3% |
| COc1ccc(CCNC(=O)c2ccncc2)cc1OC | -3.3 | – | 20.8% (inactive) |
| CC(OC(=O)c1cccc(-n2cnnn2)c1)C(=O)N(C)c1ccccc1 (stereo unspecified) | 23.3 | – | 6% (inactive) |
| C(=N\NC1=Nc2cccc3cccc1c23)/c1ccccn1 | 10.2 | – | 12% (inactive) |
| CN(C(=O)c1ccc2c(c1)CCN2S(C)(=O)=O)c1ccccc1 | -5.5 | – | -19.7% (inactive) |
| CC1CC(C)CN(C(=O)C2CCN(S(=O)(=O)c3cccs3)CC2)C1 (stereo unspecified) | 1.5 | – | 8.5% (inactive) |
| Nc1cc(=O)[nH]c(SCC(=O)Nc2cccnc2Cl)n1 | 18.4 | – | -7.6% (inactive) |
| Cn1c(O)c(C=NC2CCCCCC2)c(=O)[nH]c1=S | 0.3 | – | 7.6% (inactive) |
| O=S(=O)(Nc1cc(Sc2ncn[nH]2)c(O)c2ccccc12)c1ccccc1 | 38.3 | – | 2.2% (inactive) |
| CC(=O)NCCNC(=O)c1ccc(CSc2nc3ccccc3s2)cc1 | 15.9 | – | 16.6% (inactive) |
| CCc1c(C)nc(SCC(=O)Nc2cccc(Br)c2)[nH]c1=O | 35.5 | – | 12.1% (inactive) |
| O=C(O)c1ccc(NC2=C/C(=N/S(=O)(=O)c3ccccc3)c3ccccc3C2=O)cc1 | 38.1 | – | 41.2% |
| N#C/C(=C\c1cccnc1)C(=O)Nc1ccccc1[N+](=O)[O-] | 27.7 | – | 2% (inactive) |
| CC(C)Cc1ccc(C(C)C(N)=NCCc2ccccc2)cc1 (stereo unspecified) | -6.4 | – | -4.2% (inactive) |
| CC(NC(=O)CN(C)CC(=O)Nc1ccc(F)c(F)c1F)c1ccccc1 (stereo unspecified) | 8 | – | -8.6% (inactive) |
| CCc1cc2c(NCCC(=O)O)nc(C)nc2s1 | 20.9 | – | 21% (inactive) |
| COc1c[nH]n(C2CCCCC2)c(=O)c1=O | 6.1 | – | -8.9% (inactive) |
| O=c1c(Br)c(Br)cnn1-c1ccccc1 | 14.6 | – | 29.7% (inactive) |
| Cc1cc(C)n(-c2nc3c(c(=O)[nH]c(=O)n3C)n2CC(O)COc2ccccc2)n1 (stereo unspecified) | -7.9 | – | 7.8% (inactive) |
